This is an account of results in ChEMBL document CHEMBL1833910, “Identification and SAR of a new series of thieno[3,2-d]pyrimidines as Tpl2 kinase inhibitors” (Bioorg Med Chem Lett, 2011).

For assay [1], the target named is Glycogen synthase kinase-3 beta (Homo sapiens) (UniProt P49841). As to the kind of experiment: Inhibition of GSK3B at 1 uM.
The target of assay [2] is T1, Tyrosine-protein kinase JAK3 (Homo sapiens) (UniProt P52333).
T1 sequence (whole entry): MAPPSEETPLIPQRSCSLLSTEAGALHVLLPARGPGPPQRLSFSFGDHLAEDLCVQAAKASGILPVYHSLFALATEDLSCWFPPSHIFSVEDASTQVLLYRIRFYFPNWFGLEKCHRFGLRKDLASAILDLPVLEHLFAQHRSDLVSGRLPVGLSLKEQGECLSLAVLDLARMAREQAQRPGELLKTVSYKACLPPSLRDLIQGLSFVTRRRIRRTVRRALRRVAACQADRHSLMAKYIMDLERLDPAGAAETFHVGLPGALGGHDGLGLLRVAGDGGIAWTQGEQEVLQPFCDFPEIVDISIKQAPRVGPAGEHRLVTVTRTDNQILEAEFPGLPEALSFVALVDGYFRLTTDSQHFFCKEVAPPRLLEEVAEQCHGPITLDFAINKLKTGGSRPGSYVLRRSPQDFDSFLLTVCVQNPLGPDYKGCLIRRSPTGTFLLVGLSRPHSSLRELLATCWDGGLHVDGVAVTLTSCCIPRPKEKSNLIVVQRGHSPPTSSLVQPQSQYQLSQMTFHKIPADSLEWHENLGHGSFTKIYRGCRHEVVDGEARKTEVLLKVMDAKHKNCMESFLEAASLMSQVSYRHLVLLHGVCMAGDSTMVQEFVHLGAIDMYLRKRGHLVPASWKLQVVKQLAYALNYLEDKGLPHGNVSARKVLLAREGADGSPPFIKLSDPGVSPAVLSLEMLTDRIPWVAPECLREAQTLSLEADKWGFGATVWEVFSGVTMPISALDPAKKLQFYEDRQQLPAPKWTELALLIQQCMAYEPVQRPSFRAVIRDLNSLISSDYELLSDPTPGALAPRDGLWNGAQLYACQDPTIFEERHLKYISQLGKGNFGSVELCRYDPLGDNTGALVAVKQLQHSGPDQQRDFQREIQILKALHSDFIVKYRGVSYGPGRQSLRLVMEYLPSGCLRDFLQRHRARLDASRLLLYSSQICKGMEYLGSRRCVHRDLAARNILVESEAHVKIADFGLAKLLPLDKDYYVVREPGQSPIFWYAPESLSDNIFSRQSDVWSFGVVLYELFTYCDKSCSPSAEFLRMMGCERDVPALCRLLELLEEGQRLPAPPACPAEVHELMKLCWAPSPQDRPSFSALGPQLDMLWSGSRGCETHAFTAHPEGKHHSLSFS
As to the kind of experiment: Inhibition of JAK3 at 1 uM.

The target of assay [3] is Cyclin-dependent kinase 2/cyclin A (Homo sapiens) (UniProt P24941+P20248+P78396). As to the kind of experiment: Inhibition of CDK2/cyclin A. Type of assay: protein-complex assay. As to conditions: concentration not given here.
For assay [4], the target named is Tyrosine-protein kinase Lck (Homo sapiens) (UniProt P06239). The assay can be described thus: Inhibition of LCK at 1 uM.

A word on the inhibition: it is how much of the control response was suppressed. Lower therefore signals little suppression.

Sequence of Glycogen synthase kinase-3 beta (Homo sapiens) (P49841 whole entry, looked up): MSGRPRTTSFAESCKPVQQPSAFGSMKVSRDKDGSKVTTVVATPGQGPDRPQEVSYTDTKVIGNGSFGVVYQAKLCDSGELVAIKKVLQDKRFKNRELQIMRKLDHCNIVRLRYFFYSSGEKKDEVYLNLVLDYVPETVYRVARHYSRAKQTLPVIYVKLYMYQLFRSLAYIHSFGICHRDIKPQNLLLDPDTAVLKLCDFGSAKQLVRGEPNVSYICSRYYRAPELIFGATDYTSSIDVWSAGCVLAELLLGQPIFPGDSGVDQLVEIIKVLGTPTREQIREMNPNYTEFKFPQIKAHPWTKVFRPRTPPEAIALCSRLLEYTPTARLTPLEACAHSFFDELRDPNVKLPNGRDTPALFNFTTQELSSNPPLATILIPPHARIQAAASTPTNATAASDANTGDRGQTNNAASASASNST
Sequence of Tyrosine-protein kinase Lck (Homo sapiens) (P06239 2-509 limits assumed): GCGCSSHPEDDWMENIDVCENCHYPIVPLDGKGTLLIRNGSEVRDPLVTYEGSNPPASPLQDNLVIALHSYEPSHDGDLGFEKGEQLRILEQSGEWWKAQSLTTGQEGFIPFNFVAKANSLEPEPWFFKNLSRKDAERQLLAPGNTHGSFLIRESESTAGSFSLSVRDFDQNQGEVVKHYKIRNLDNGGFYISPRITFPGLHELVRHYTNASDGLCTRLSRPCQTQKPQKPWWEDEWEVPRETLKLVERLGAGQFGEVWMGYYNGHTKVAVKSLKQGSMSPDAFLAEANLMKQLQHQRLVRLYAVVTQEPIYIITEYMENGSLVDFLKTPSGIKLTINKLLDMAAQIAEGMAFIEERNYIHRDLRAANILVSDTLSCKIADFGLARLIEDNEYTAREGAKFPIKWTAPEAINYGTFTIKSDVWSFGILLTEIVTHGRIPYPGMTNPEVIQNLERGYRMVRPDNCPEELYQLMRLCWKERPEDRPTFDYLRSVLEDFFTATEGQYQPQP

As for `CC(=O)Nc1ccc(-c2cc3ncnc(SCC(=O)O)c3s2)cc1`, the inhibition in assay [1] was determined as 50.5%; in assay [2], 43.3%; in assay [3], 46.8%; in assay [4], 13.8%.

Take `O=C(O)COc1ncnc2cc(-c3ccc4[nH]ncc4c3)sc12`: the inhibition was 56.5% in assay [1], 29.5% in assay [2], 27.3% in assay [3] and 6% in assay [4].
